The text below walks through data of the supplement of paper PMC9103864.

The subject of experiment [1] is BMSC (primary human bone marrow mesenchymal stromal cells). Briefly: drug sensitivity score (DSS); higher = more sensitive.
For experiment [2] the test system is unchanged. Briefly: absolute EC50 for viability; higher = less sensitive.

Structures are written as SMILES.

For the compound `O=S(=O)(c1cccc2c(O)nccc12)N1CCCNCC1` [Hydroxyfasudil], in experiment [1], the drug sensitivity score turned out to be 1. Besides, the “absolute EC50 for viability” value in experiment [2] is over 19 µM.

As for `NC(=O)NO` [Hydroxyurea], the drug sensitivity score in experiment [1] is -2.9. Besides, the “absolute EC50 for viability” value in experiment [2] is over 1000 µM.

For `COc1cc2c(cc1-c1c(C)noc1C)ncc1[nH]c(=O)n([C@H](C)c3ccccn3)c12` [I-BET151], the drug sensitivity score in experiment [1] is 3.5. For the same compound, in experiment [2], the “absolute EC50 for viability” value is over 10 µM.

In turn, `O=C(O)c1ccc(O)c2ncccc12` [IOX-1] displayed a drug sensitivity score in experiment [1] of 0.6. The “absolute EC50 for viability” value in experiment [2] is over 100 µM.

As for `O=C(O)CNC(=O)c1c(O)c2ccccc2n(Cc2ccccc2)c1=O` [IOX-2], the drug sensitivity score in experiment [1] turned out to be 1.9. The “absolute EC50 for viability” value in experiment [2] is over 50 µM.

With `C=CC(=O)N1CCC[C@@H](n2nc(-c3ccc(Oc4ccccc4)cc3)c3c(N)ncnc32)C1` [Ibrutinib], the drug sensitivity score in experiment [1] worked out at 0. Further, the “absolute EC50 for viability” value in experiment [2] is over 1 µM.

As for `C#Cc1cccc(Nc2ncnc3cc4c(cc23)OCCOCCOCCO4)c1` [Icotinib], the drug sensitivity score in experiment [1] came out at 2.1. Besides, the “absolute EC50 for viability” value in experiment [2] is over 10 µM.

In experiment [1], `CC(=O)[C@]1(O)Cc2c(O)c3c(c(O)c2[C@@H](O[C@H]2C[C@H](N)[C@H](O)[C@H](C)O2)C1)C(=O)c1ccccc1C3=O` [Idarubicin] had a drug sensitivity score of 6.6. For the same compound, the “absolute EC50 for viability” value in experiment [2] was determined as 0.233 µM.

The compound `COc1cc(C(=O)O)ccc1NC(=O)[C@@H]1N[C@@H](CC(C)(C)C)[C@](C#N)(c2ccc(Cl)cc2F)[C@H]1c1cccc(Cl)c1F` [Idasanutlin] showed a drug sensitivity score in experiment [1] of 13.3. For the same compound, in experiment [2], the “absolute EC50 for viability” value is 0.576 µM.

`CC[C@H](Nc1ncnc2[nH]cnc12)c1nc2cccc(F)c2c(=O)n1-c1ccccc1` [Idelalisib] returned a drug sensitivity score in experiment [1] of 2.7. For the same compound, in experiment [2], the “absolute EC50 for viability” value was over 10 µM.

Turning to `Cc1ccc(NC(=O)c2ccc(CN3CCN(C)CC3)cc2)cc1Nc1nccc(-c2cccnc2)n1` [Imatinib], the drug sensitivity score in experiment [1] is 5.8. Also, the “absolute EC50 for viability” value in experiment [2] was over 10 µM.

`CC(C)Cn1cnc2c(N)nc3ccccc3c21` [Imiquimod] registered a drug sensitivity score in experiment [1] of 0. In addition, in experiment [2], the “absolute EC50 for viability” value is over 2.5 µM.

In turn, `O=C(Nc1ccncc1)C(=O)c1cn(Cc2ccc(Cl)cc2)c2ccccc12` [Indibulin] showed a drug sensitivity score in experiment [1] of 0. The “absolute EC50 for viability” value in experiment [2] was over 10 µM.

Turning to `CCN1CCN(c2ccc(Nc3cc(N(C)C(=O)Nc4c(Cl)c(OC)cc(OC)c4Cl)ncn3)cc2)CC1` [Infigratinib], the drug sensitivity score in experiment [1] was 0. Besides, the “absolute EC50 for viability” value in experiment [2] was over 1 µM.

Take `CC(C)NC[C@@H](C(=O)N1CCN(c2ncnc3c2[C@H](C)C[C@H]3O)CC1)c1ccc(Cl)cc1` [Ipatasertib]: the drug sensitivity score in experiment [1] is 4.7. In addition, in experiment [2], the “absolute EC50 for viability” value was over 10 µM.

In turn, `CCC(C)n1ncn(-c2ccc(N3CCN(c4ccc(OCC5COC(Cn6cncn6)(c6ccc(Cl)cc6Cl)O5)cc4)CC3)cc2)c1=O` (centres undefined) [Itraconazole] showed a drug sensitivity score in experiment [1] of 1.3. In addition, the “absolute EC50 for viability” value in experiment [2] is over 5 µM.

`N#Cc1ccnc(N2C(=O)CC[C@H]2C(=O)N(c2cncc(F)c2)[C@H](C(=O)NC2CC(F)(F)C2)c2ccccc2Cl)c1` [Ivosidenib] had a drug sensitivity score in experiment [1] of 0. The “absolute EC50 for viability” value in experiment [2] was over 10 µM.

The compound `C/C(=C\c1csc(C)n1)[C@@H]1C[C@@H]2O[C@]2(C)CCC[C@H](C)[C@H](O)[C@@H](C)C(=O)C(C)(C)[C@@H](O)CC(=O)N1` [Ixabepilone] gave a drug sensitivity score in experiment [1] of 0.5. For the same compound, the “absolute EC50 for viability” value in experiment [2] is over 1 µM.

Consider `CC(C)C[C@H](NC(=O)CNC(=O)c1cc(Cl)ccc1Cl)B(O)O` [Ixazomib], for which, in experiment [1], the drug sensitivity score stood at 0.4. The “absolute EC50 for viability” value in experiment [2] is over 1 µM.

On to `Nc1cc(COc2c(Cl)cc(C[C@H](N)C(=O)O)cc2Cl)c2oc(-c3ccccc3)nc2c1` [JPH203], for which the drug sensitivity score in experiment [1] is 0. Moreover, the “absolute EC50 for viability” value in experiment [2] was over 5 µM.

As to `Cc1sc2c(c1C)C(c1ccc(Cl)cc1)=N[C@@H](CC(=O)OC(C)(C)C)c1nnc(C)n1-2` [JQ1], the drug sensitivity score in experiment [1] was found to be 5.3. Further, in experiment [2], the “absolute EC50 for viability” value was over 10 µM.

Compound `CC(C)NC(=O)COc1cccc(-c2nc(Nc3ccc4[nH]ncc4c3)c3ccccc3n2)c1` [KD025] came in with a drug sensitivity score in experiment [1] of 0. Moreover, the “absolute EC50 for viability” value in experiment [2] is over 5 µM.

In experiment [1], `CS(=O)(=O)CCNCc1ccc(-c2ccc3ncnc(Nc4ccc(OCc5cccc(F)c5)c(Cl)c4)c3c2)o1` [Lapatinib] showed a drug sensitivity score of 0.1. Further, the “absolute EC50 for viability” value in experiment [2] was over 1 µM.

In experiment [1], `O=C(Nc1cnn2ccc(N3CCC[C@@H]3c3cc(F)ccc3F)nc12)N1CC[C@H](O)C1` [Larotrectinib] had a drug sensitivity score of 0. In addition, the “absolute EC50 for viability” value in experiment [2] is over 1 µM.

The compound `Oc1ccc2c(c1)CC[C@H](c1ccccc1)[C@@H]2c1ccc(OCCN2CCCC2)cc1` [Lasofoxifene] displayed a drug sensitivity score in experiment [1] of 0.4. Besides, the “absolute EC50 for viability” value in experiment [2] is over 1 µM.

The compound `Nc1cccc2c1CN(C1CCC(=O)NC1=O)C2=O` (centres undefined) [Lenalidomide] registered a drug sensitivity score in experiment [1] of 0. The “absolute EC50 for viability” value in experiment [2] was over 100 µM.

Take `COc1cc2nccc(Oc3ccc(NC(=O)NC4CC4)c(Cl)c3)c2cc1C(N)=O` [Lenvatinib]: in experiment [1], the drug sensitivity score came to 5.2. Also, the “absolute EC50 for viability” value in experiment [2] is over 2.5 µM.

In experiment [1], `N#Cc1ccc(C(c2ccc(C#N)cc2)n2cncn2)cc1` [Letrozole] had a drug sensitivity score of 0. In addition, the “absolute EC50 for viability” value in experiment [2] was over 10 µM.

For `Cc1ccc(F)c(NC(=O)Nc2ccc(-c3cccc4[nH]nc(N)c34)cc2)c1` [Linifanib], the drug sensitivity score in experiment [1] came out at 0. The “absolute EC50 for viability” value in experiment [2] was over 1 µM.

Take `C[C@]1(O)C[C@@H](c2nc(-c3ccc4ccc(-c5ccccc5)nc4c3)c3c(N)nccn32)C1` [Linsitinib]: the drug sensitivity score in experiment [1] was found to be 2.9. Moreover, the “absolute EC50 for viability” value in experiment [2] was over 10 µM.

Compound `CCNCCS(=O)(=O)NC[C@@]1(c2ccccc2)SC(NC(=O)C(C)(C)C)=NN1C(=O)C(C)(C)C` [Litronesib] returned a drug sensitivity score in experiment [1] of 0. Moreover, in experiment [2], the “absolute EC50 for viability” value is over 1 µM.

The compound `Nc1nc(OCc2cc(Br)cs2)c2[nH]cnc2n1` [Lomeguatrib] displayed a drug sensitivity score in experiment [1] of 0. For the same compound, the “absolute EC50 for viability” value in experiment [2] is over 10 µM.

`NC(=O)N1CCC(CC(=O)N2CCC([C@H]3c4ncc(Br)cc4CCc4cc(Cl)cc(Br)c43)CC2)CC1` [Lonafarnib] yielded a drug sensitivity score in experiment [1] of 4.4. Also, in experiment [2], the “absolute EC50 for viability” value was over 100 µM.

`Cc1c(F)cc(C(=O)NC2CC2)cc1-c1ccc(C(=O)NCC(C)(C)C)cn1` [Losmapimod]: the drug sensitivity score in experiment [1] is 0. Moreover, the “absolute EC50 for viability” value in experiment [2] was over 10 µM.

Regarding `CC[C@H](C)C(=O)O[C@H]1C[C@@H](C)C=C2C=C[C@H](C)[C@H](CC[C@@H]3C[C@@H](O)CC(=O)O3)[C@H]21` [Lovastatin], in experiment [1], the drug sensitivity score was 0. Further, the “absolute EC50 for viability” value in experiment [2] was over 10 µM.

For `CNC(=O)c1cccc2cc(Oc3ccnc4cc(OCC5(N)CC5)c(OC)cc34)ccc12` [Lucitanib], the drug sensitivity score in experiment [1] came out at 9. Besides, the “absolute EC50 for viability” value in experiment [2] is over 10 µM.

For `CCNC(=O)c1noc(-c2cc(C(C)C)c(O)cc2O)c1-c1ccc(CN2CCOCC2)cc1` [Luminespib], the drug sensitivity score in experiment [1] is 16.8. Besides, the “absolute EC50 for viability” value in experiment [2] came to 0.0152 µM.

In experiment [1], `O=C(O)CC[C@H]1CC[C@@](c2cc(F)ccc2F)(S(=O)(=O)c2ccc(Cl)cc2)CC1` [MK-0752] registered a drug sensitivity score of 0. Besides, the “absolute EC50 for viability” value in experiment [2] was over 1 µM.

`NC1(c2ccc(-c3nc4ccn5c(=O)[nH]nc5c4cc3-c3ccccc3)cc2)CCC1` [MK-2206] had a drug sensitivity score in experiment [1] of 5.8. Besides, in experiment [2], the “absolute EC50 for viability” value is over 1 µM.

In experiment [1], `O=C(c1cccc(Cl)c1F)N1CCN(Cc2cccc(Nc3nccs3)n2)CC1` [MK-8745] registered a drug sensitivity score of 1.3. Further, the “absolute EC50 for viability” value in experiment [2] was over 10 µM.

As for `Cn1cc(-c2cnn3c(N)c(Br)c([C@@H]4CCCNC4)nc23)cn1` [MK-8776], the drug sensitivity score in experiment [1] came out at 1. In addition, the “absolute EC50 for viability” value in experiment [2] is over 2.5 µM.

On to `Cc1cnc(-c2ccccc2C(C)C)nc1NCc1ccc(-n2ccnn2)cc1` [ML323], for which the drug sensitivity score in experiment [1] turned out to be 0. Also, the “absolute EC50 for viability” value in experiment [2] was over 10 µM.

`O=C(CCNC(=O)c1ccc(OC(F)(F)F)cc1)N[C@@H]1CCCc2ccccc21` [ML390] displayed a drug sensitivity score in experiment [1] of 0.3. Besides, the “absolute EC50 for viability” value in experiment [2] is over 50 µM.

As for `O=C(Nc1cccc(NC(=O)c2cccc(O)c2O)c1)c1cccc(O)c1O` [MST-312], the drug sensitivity score in experiment [1] came to 9.7. Moreover, the “absolute EC50 for viability” value in experiment [2] worked out at 1.22 µM.

In the case of `CNC(=O)[C@@H](NC(=O)[C@H](CC(C)C)[C@H](O)C(=O)NO)C(C)(C)C` [Marimastat], the drug sensitivity score in experiment [1] is 0. Also, the “absolute EC50 for viability” value in experiment [2] was over 10 µM.

In the case of `Cc1ccc(NC(=O)c2ccc(CN3CCN(C)CC3)cc2)cc1Nc1nc(-c2cccnc2)cs1` [Masitinib], the drug sensitivity score in experiment [1] is 8.8. The “absolute EC50 for viability” value in experiment [2] was 2.86 µM.

In the case of `CC(=O)O[C@]1(C(C)=O)CC[C@H]2[C@@H]3C=C(C)C4=CC(=O)CC[C@]4(C)[C@H]3CC[C@@]21C` [Megestrol acetate], the drug sensitivity score in experiment [1] was 0. For the same compound, the “absolute EC50 for viability” value in experiment [2] was over 10 µM.

As for `CCN(CC)CCCC(C)Nc1c2ccc(Cl)cc2nc2ccc(OC)cc12` (centres undefined) [Mepacrine], the drug sensitivity score in experiment [1] came out at 17.7. Further, the “absolute EC50 for viability” value in experiment [2] came to 1.58 µM.

For `S=c1[nH]cnc2nc[nH]c12` [Mercaptopurine], the drug sensitivity score in experiment [1] is 11.1. Also, the “absolute EC50 for viability” value in experiment [2] was over 10 µM.

In experiment [1], `Cc1ccc(C(=O)Nc2ccc(Oc3cc4cnn(C)c4cc3-c3cn[nH]c3)c(F)c2)c(=O)n1-c1ccc(F)cc1` [Merestinib] showed a drug sensitivity score of 1.4. Further, the “absolute EC50 for viability” value in experiment [2] was over 1 µM.

On to `CN(C)C(=N)NC(=N)N` [Metformin], for which the drug sensitivity score in experiment [1] amounted to 0. In addition, in experiment [2], the “absolute EC50 for viability” value is over 100 µM.

`CN(Cc1cnc2nc(N)nc(N)c2n1)c1ccc(C(=O)N[C@@H](CCC(=O)O)C(=O)O)cc1` [Methotrexate] displayed a drug sensitivity score in experiment [1] of 4.7. In experiment [2], the “absolute EC50 for viability” value was over 5 µM.
